Laboratory results taken from patent US20230149351A1, “TREATMENT OF SYMPTOMATIC VIRAL DISEASES” (SYNACT PHARMA ApS, priority 2020, published 2023).

How the values were obtained:
[1] = system: acute peritonitis induced by zymosan A; assay: Zymosan A induced acute peritonitis in mice (peritoneal cytokines by ELISA, neutrophil counts by flow cytometry); type: in vivo, mice (C57BL/6J); settings: 1 mg/kg intraperitoneal 30 minutes before zymosan A, sacrifice twelve hours later, N=6
Description: Acute peritonitis was induced by the injection of 1 mg zymosan A (Sigma-Aldrich) i.p. in 0.5 ml sterile PBS in mice. Twelve hours later the mice were sacrificed by CO2 exposure, and peritoneal cavities were washed with 4 ml ice-cold PBS containing 3 mM EDTA. Cells were stained with Turk’s solution (0.01% crystal violet in 3% acetic acid) and counted using a Neubauer hemocytometer or were stained with FITC-conjugated mAb for Ly-6G/Gr1, F4/80, and corresponding isotype controls (eBioscience, Hatfield, U.K.), and subjected to flow-cytometry analysis using a BD FACSCalibur platform (BD Biosciences, Oxford, U.K.).
Levels of IL-1β and IL-6 in quick frozen samples were quantified according to the manufacturer’s instructions using ELISA Ready-SET-Go! (eBioscience).
All animal studies were approved by and performed under the guidelines of the Ethical Committee for the Use of Animals, Barts and The London School of Medicine and Home Office regulations (Guidance on the Operation of Animals, Scientific Procedures Act, 1986). Male (7-8 wk old) C57BL/6J wild-type (WT) mice were purchased from Charles River Laboratories.
Test Item A, 1 mg/kg or vehicle treatment were given intraperitoneal 30 minutes before induction of the acute peritonitis. N=6 for in both groups.

[2] = system: experimental inflammatory arthritis; settings: oral; cited from earlier work
MC3R = settings: cited from earlier work
melanocytes = settings: cited from earlier work
[3] = system: Covid-19 induced pulmonary insufficiency; settings: 100 mg once daily oral, add-on to standard therapy; 6 patients
Description: The initial open label part of the study was conducted in 6 patients referred to hospital with Covid-19 induced pulmonary insufficiency, defined as a need for supplementary oxygen to maintain normal saturation.

MC1R [4] = settings: cited from earlier work
MC1R [5] = molecular target: MC1R (Homo sapiens, UniProt Q01726); settings: cited from earlier work
peritonitis = settings: oral; cited from earlier work
macrophages = settings: cited from earlier work
[6] = system: mouse primary macrophages; settings: cited from earlier work

MC1R (Homo sapiens, UniProt Q01726), sequence (Q01726 whole entry, species assumed): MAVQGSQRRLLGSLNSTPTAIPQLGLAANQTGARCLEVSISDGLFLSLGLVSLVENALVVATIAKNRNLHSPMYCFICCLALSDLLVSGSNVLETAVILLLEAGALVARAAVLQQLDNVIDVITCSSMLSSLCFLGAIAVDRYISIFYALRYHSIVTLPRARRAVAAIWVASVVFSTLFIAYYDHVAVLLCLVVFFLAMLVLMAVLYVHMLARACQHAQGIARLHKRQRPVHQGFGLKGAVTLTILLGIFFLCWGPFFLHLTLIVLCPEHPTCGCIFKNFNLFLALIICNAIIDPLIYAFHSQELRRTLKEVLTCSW

NC(N)=N/N=C/C=C/c1cccn1-c1ccccc1[N+](=O)[O-] [AP1189, (E)-N-trans-{3-[1-(2-nitrophenyl)-1H-pyrrol-2-yl]-allylidene}-aminoguanidium acetate]
reduction of neutrophil accumulation compared to vehicle [1]: 70% | reduction of levels of pro-inflammatory cytokine IL-1β compared to pretreatment with vehicle ([1]; p<0.05 vs vehicle): 37% | reduction of levels of pro-inflammatory cytokine IL-6 compared to pretreatment with vehicle ([1]; p<0.05 vs vehicle): 59% | macroscopic and histological parameters of joint disruption [2]: significant reduction | ERK1/2 phosphorylation (MC3R) (MC3R): cause ERK1/2 phosphorylation | canonical cAMP generation (MC3R) (MC3R): does not induce canonical cAMP generation | type of agonism at MC3R (MC3R): biased agonist | melanogenesis (melanocytes): no melanogenesis was induced | development of a need for more intensive pulmonary support [3]: none of them developed a need for more intensive pulmonary support | safety and tolerability [3]: safe and well tolerated | ERK1/2 phosphorylation (MC1R) (MC1R [4]): cause ERK1/2 phosphorylation | canonical cAMP generation (MC1R) (MC1R [4]): does not induce canonical cAMP generation | type of agonism at MC1R (MC1R [4]): biased agonist | binding to MC1R (MC1R [5]): bind the MC1R | anti-inflammatory action in peritonitis (peritonitis): elicits anti-inflammatory actions | resolution phase of peritonitis (peritonitis): accelerated the resolution phase | cytokine release (macrophages): reduce cytokine release | efferocytosis [6]: proefferocytic effect
